Patent publication US11707511B2, “Vaccine compositions and methods of using the same” (The Board of Supervisors of Louisiana State University and …, priority 2017, dated 2023)
“Also recorded” adds a separate entry of the source.

B1: 7H6A2: IgG2b mAb of hybridoma 7H6A2, specific for Met6 peptide (antibody)
heavy: QIQLVQSGPELKKPGETVKISCKASGYTFTDFSMHWVKQAPGKGLKWMGWINTETVEPTYADDFKGRFAFSLETSASTAYLQINNLKNEDTATYFCSRVSYDGYYGDFAMDYWSQGTSVTVSSAKTTAPSVYPLAPVCGDTTGSSVTLGCLVKGYFPEPVTLTWNSGSLSSGVHTFPAVLQSDLYTLSSSVTVTSSTWPSQSITCNVAHPASSTKVDKKIEPRGPTIKPCPPCKCPAPNLLGGPSVFIFPPKIKDVLMISLSPIVTCVVVDVSEDDPDVQISWFVNNVEVHTAQTQTHREDYNSTLRVVSALPIQHQDWMSGKEFKCKVNNKDLPAPIERTISKPKGSVRAPQVYVLPPPEEEMTKKQVTLTCMVTDFMPEDIYVEWTNNGKTELNYKNTEPVLDSDGSYFMYSKLRVEKKNWVERNSYSCSVVHEGLHNHHTTKSFSRTPGK
light: DIQMTQTTSSLSASLGDRVTISCRASQDISNYLNWYQQKPDGTVKLLIYYTSRLHSGVPSRFSGSGSGTDYSLTISNLEQEDIATYFCQQGNTLPWTFGGGTKLEIKRADAAPTVSIFPPSSEQLTSGGASVVCFLNNFYPKDINVKWKIDGSERQNGVLNSWTDQDSKDSTYSMSSTLTLTKDEYERHNSYTCEATHKTSTSPIVKSFNRNEC

How the values were obtained:
[1] = system: C. tropicalis (ATCC 20336); experiment: Peptide-vaccinated mice challenged with lethal dose of C. tropicalis; type: in vivo; conditions: for survival: FIG. 3A, i.v. challenge 1×10^6/mouse, up to 80 days; for live fungal cells (CFU) in kidneys as compared to controls: FIG. 3B, p<0.001
Protocol: (§1) Active Immunizations with peptide pulsed dendritic cells. […] It allows us to perform rapid throughput evaluation of candidate short peptides. When protective double universal peptide conjugate(s) become identified by this study, immunization approaches suitable for human use will be applied in further studies. All active vaccinations were conducted as previously described (6,7,9). DCs were pulsed in vitro with universal peptide as described before with minor modification by totally removing CFA for last booster (6). Briefly, DCs in culture were pulsed with the peptide antigen (1 μM) on day 6. On day 7, PGE2 (10^-7M) was added along with LPS (2 μg/ml, Sigma) for 24 h to induce DC maturation. On day 9, antigen-pulsed DCs were washed extensively and […] in 200 μl DPBS were given by intraperitoneal (i.p.) route as the priming dose to mice. The mice were boosted i.p. at day 14 and day 28 with fresh antigen-pulsed DCs without adjuvant.
Peptide-vaccinated mice were challenged with lethal dose of live C. tropicalis cells (ATCC 20336; i.v. challenge dose: 1×10^6/mouse).

[2] = Induction of specific anti-peptide antibody responses in immunized mice; type: in vivo; conditions: BALB/c mice; peptide-pulsed DC; data not shown
Text: (§2) To perform rapid throughput evaluation of peptide vaccine candidates, immunizations were done by use of the similar antigen-pulsed DC based vaccine strategy with modification by totally removing CFA from vaccine formula. Fba peptide was used as positive control.
The double chimeric peptide conjugate vaccines have been tested for their abilities to induce specific anti-peptide antibodies and protective immunity against the disease caused by C. albicans. […] The enhancement in vaccine efficacy was evidenced by both increased survival and reduced or non-detectable fungal burden (colony forming units, CFUs) in kidneys of animals.

C. albicans = experiment: Active immunization with peptide-pulsed dendritic cells, disseminated candidiasis caused by C. albicans in mice; type: in vivo, Candida albicans; conditions: for protection against disseminated candidiasis caused by C. albicans: FIG. 2, antigen-pulsed DC vaccine without CFA; for CFUs in kidneys as compared to controls: FIG. 2 B and D
Protocol: as §1
Table 2 lists universal peptide vaccines that induced protection against disseminated candidiasis caused by C. albicans in mice. The universal peptide vaccines listed in Table 1 are expressed at high homology by all analyzed medically important Candida species in addition to C. albicans (see details at Table 2). By dendritic cell (DC) based immunization approach as described herein, each of the universal peptide vaccines was able to protect mice against disseminated candidiasis caused by C. albicans, with the survival rate 80-100% up to 80-120 days post challenge.
as §2

[3] = system: C. glabrata CBS138 (ATCC 2001); experiment: Peptide-vaccinated, cyclophosphamide-immunosuppressed mice challenged with C. glabrata; type: in vivo; conditions: FIG. 4; 1×10^7 cells/mouse
Protocol: as §1
Peptide vaccinated mice were also challenged with C. glabrata, which has emerged as the second most common cause of invasive candidiasis in the US. Since C. glabrata is not lethal for wild-type mice, immunosuppression in vaccinated mice were induced by cyclophosphamide (50 mg/kg) treatment for two weeks, and then mice were challenged with live C. glabrata cells [CBS138 (ATCC 2001), 1×10^7 cells/mouse]. […] CFU experiments will be performed and completed. […]

C. auris = experiment: Passive transfer of mAbs in cyclophosphamide-immunosuppressed B6.129X1Elane mice, disseminated infection by C. auris; type: in vivo, Candida auris; conditions: 2×108 C. auris i.v.
Protocol: An immunocompromised murine model of disseminated infection by C. auris was developed. To induce immunosuppression, Jackson B6.129X1Elane mice received a 200 mg/kg dose of cyclophosphamide (CY) by i.p. on day −3. Prolonged immunosuppression was maintained for 30 days by giving each animal a 200 mg/kg dose of CY by i.p. every 10 days after infection. On day 0, mice of different experimental groups were intravenously infected with 2×10^8 viable C. auris yeast cells.
The preventive effect of peptide-specific mAbs, for example 7H6A2 and 1D4H5, and combinations thereof, for example 7H6A2+1D4H5, was examined by passive transfer experiments. Each mAb was appropriately diluted in DPBS to give a 40,000-100,000 ELISA titer against each corresponding specific peptide coated on the plate. For testing, mice received 0.5 ml of each mAb or 1 ml of two mAbs in combination (0.5 ml of each) intraperitoneally. Control mice received 0.5 ml of the DPBS diluents.
Protective mAbs protect immunocompromised mice against disseminated infection by Candida auris: The possibility of using passive mAb immunotherapy in immunocompromised mice against disseminated candidiasis by C. auris. The protective effect of mAb 7H6A2, 1D4H5 or these two mAbs in combination against the disease in immunocompromised mice was examined by passive transfer experiments (FIG. 14). Mice received either mAb 7H6A2 or 1D4H5 or the two mAbs in combination had reduced CFUs in kidneys (FIG. 14A) and in brains (FIG. 14B) as compared with control mice.

C. albicans 3153A = experiment: Passive transfer of mAbs or mAb cocktails i.p. before lethal i.v. challenge, mouse model of human disseminated candidiasis; type: in vivo, Candida albicans; conditions: Table 14
Protocol: Passive transfer of MAbs by intraperitoneal (i.p.) route. The preventive effect of peptide-specific mAbs listed in Table 3 and Table 4 in naïve mice was examined by passive transfer experiments. […] For testing, mice received 0.5 ml of each mAb or 1 ml of two mAbs in combination (0.5 ml of each) intraperitoneally. […] The negative control materials tested in mice were single mAb or DPBS. Control mice received 0.5 ml of the DPBS diluents or single mAb treatment. For each condition, 6- to 8-week-old female BALB/c mice (NCI) were given 0.5 ml of test mAb, or 1 ml two mAb cocktails or control materials intraperitoneally, followed 4 h later by 0.1 ml intravenously of defined lethal dose of yeast cells per milliliter of DPBS. Mice were divided into groups with five mice each and three independent experiments were carried out. In some experiments, mice were given the same dose of mAbs or control materials on every other day post-challenge for two weeks, as compared to the protective efficacy of mAb in combinations. All mice were sacrificed on day 50. For animal groups that were challenged non-albicans candida species, determined optimal challenge doses were applied for each candida strain.
The hybridoma clones that produce the universal peptide specific mAbs listed above were generated from mice vaccinated with peptide-pulsed dendritic cell (DC) preparation as described previously (6). The isotype of mAb was determined with a Mouse Monoclonal Antibody Isotyping Kit (Pierce, USA). […] In detail, BALB/c mice were given an i.p dose of each mAb four hours before hematogenous challenged with a lethal dose of C. albicans3153A cells. […] Importantly, passive protection was prevented by removal of the mAbs by absorption with Candida cells before transfer, which provided strong additional evidence for the protection being due to the mAb.
The three cell wall proteins were selected because of expression during human candidiasis and cell wall association, and included fructose-bisphosphate aldolase (Fba); methyltetrahydropteroyltriglutamate-homocysteine methyltransferase (Met6); hyphal wall protein-1 (Hwp1). The hybridoma clones listed at Table 5, which produce the peptide specific mAbs, were generated from mice vaccinated with peptide-pulsed dendritic cell (DC) preparation as described previously (6). The isotype of mAb was determined with a Mouse Monoclonal Antibody Isotyping Kit (Pierce, USA). […] Importantly, passive protection was prevented by removal of the mAbs by absorption with Candida cells before transfer, which provided strong additional evidence for the protection being due to the mAb).
The preventive effect of each universal peptide-specific mAb was examined by passive transfer experiments. […] For testing, 5 mice of each tested group received 0.5 ml of each mAb intraperitoneally. The negative control materials tested in mice were mAbs absorbed with C. albicans yeast cells (3153A) and DPBS. Control mice received 0.5 ml of the DPBS diluents or adsorbed mAb solution. For each condition, 6- to 8-week-old female BALB/c mice (NCI) were given 0.5 ml of test mAb, or control materials intraperitoneally, followed 4 h later by 0.1 ml intravenously of a suspension containing lethal dose of Candida cells per milliliter of DPBS. Mice were divided into groups with five mice each and three independent experiments were carried out. We have developed neutropenic murine models of disseminated infection by C. glabrata, C. tropicalis and C. parapsilosis. To induce neutropenia, naïve mice received a 200 mg/kg dose of cyclophosphamide (CY) by i.p. on day −3. Prolonged neutropenia were maintained for 30-50 days by giving each animal a 150 mg/kg dose of CY by i.p. every 10 days after infection.

C. auris AR-0386 = experiment: Passive transfer of mAbs or two mAbs in combination in A/J mouse model of invasive C. auris infection; type: in vivo, Candida auris; conditions: Table 19; A/J strain mice
Protocol: A. Complement protein C5-defecient A/J mice were treated with one of the five mAb or with DPBS as a vehicle control. The following day, mice were challenged with 1×10^8 C. auris cells/100 ul DPBS dose per mouse. […] B. Fungal burdens in the kidneys (top), heard (center), and brain (bottom).
Identified protective mAbs were obtained by use of standard hybridoma technique and purified by use of protein A/G. A/J mice were given an i.p. dose of either single mAb or two mAbs in combination 24 hours before hematogensous challenge with a lethal dose (2×108) of C. auris AR-0386 live cells. Mice received either 9G2F5 alone or 6H1G8 alone or 9F2G5 and 3H7E3 in combination had 40% survival rate respectively, with prolonged survival as compared to control animals that received DPBS buffer control.
Evaluation and validation of a panel of peptide-specific monoclonal antibodies (mAbs) as a passive immunization strategy protect against invasive C. auris infection in established A/J mouse model of human disease.
The monoclonal antibodies used in this experiment were: • 6H1G8 (IgG2b), α-Hwp1 (Hyphal wall protein) • 3E2G2 (IgG2b), α-Fba (Fructose bisphosphate aldolase) • 10E7E2 (IgG1), α-GPV-P3 (General peptide vaccine 3 from Phosphoglycerate kinase) • 9F2G5 (IgG2a), α-Pgk1 (Phosphoglycerate kinase) • 3H7E3 (IgG1), α-Met6 (Methyltetrahydropteroyltriglutamate)

Row | Molecule | survival [1] [%] | live fungal cells (CFU) in kidneys as compared to controls [1] | specific antibody responses [2] | protection against disseminated candidiasis caused by C. albicans (C. albicans) | CFUs in kidneys as compared to controls (C. albicans) | protection against disseminated candidiasis caused by C. glabrata [3] | CFUs in kidneys as compared with control mice (C. auris; FIG. 14A) | CFUs in brains as compared with control mice (C. auris; FIG. 14B) | Protection of adsorbed mAb (C. albicans 3153A; mAb removed by absorption with Candida cells before transfer) | Protection (C. albicans 3153A; single mAb, C. albicans) | Protection (grade word) (C. albicans 3153A; single mAb, C. albicans) | Protection against C. auris (C. auris AR-0386) | Protection against C. auris (grade word) (C. auris AR-0386)
1 | YDQVLDLSLLFNAIP [Met6-2] | 80 | significantly reduced live fungal cells | able to induce specific antibody responses | good protective responses; also recorded: high degree protection | reduced or non-detectable CFUs | high degree protection |  |  |  |  |  |  | 
2 | FbaU1: putative universal Fba peptide; Table 17 equates it with Fba3 (SEQ ID NO: 36) but tested as a separate peptide (FAIPAINVTSSSTVVAALE) | 100 | significantly reduced live fungal cells | able to induce specific antibody responses | good protective responses; also recorded: high degree protection | reduced or non-detectable CFUs | high degree protection |  |  |  |  |  |  | 
3 | B1 |  |  |  |  |  |  | reduced CFUs | reduced CFUs; also recorded: no CFU detected | None | (80-90%) | High | 80-100% | High
